From BindingDB's records for PubMed 7853174 (Merck Research Laboratories, 1995)
pKi: −log10 of the molar value.

Molecular target: T1, Type-2 angiotensin II receptor (Rattus norvegicus, UniProt P35351)
T1 sequence (P35351 whole entry): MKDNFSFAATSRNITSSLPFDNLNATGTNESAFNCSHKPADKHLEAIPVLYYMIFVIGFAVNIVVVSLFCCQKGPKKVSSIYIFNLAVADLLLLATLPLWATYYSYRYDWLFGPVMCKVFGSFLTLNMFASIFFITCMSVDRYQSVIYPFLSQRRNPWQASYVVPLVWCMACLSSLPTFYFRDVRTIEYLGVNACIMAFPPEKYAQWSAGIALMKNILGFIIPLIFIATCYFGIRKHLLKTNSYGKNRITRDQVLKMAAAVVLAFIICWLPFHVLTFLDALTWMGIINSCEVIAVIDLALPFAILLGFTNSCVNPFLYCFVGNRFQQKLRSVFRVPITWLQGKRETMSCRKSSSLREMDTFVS

Q: With `CCCc1nc(C(F)(F)C(F)(F)F)c(C(=O)O)n1Cc1ccc(-c2ccccc2-c2nnn[nH]2)cc1` [CAS_124750-95-4] as the molecule, how does the pKi read?
A: 5.24
